The record followed here is patent US20250066353A1, “VANIN-1 INHIBITORS” (ATHOS THERAPEUTICS, INC., priority 2023, published 2025).

The data set can be described thus: PAMPA permeability assay. Type of data set: in vitro ADME. The following applies: for Papp at 5 h, 20 µM: 20 μM donor in PBS/MeOH 90:10, 5 hours at room temperature; for permeability compared to non-deuterated counterparts: deuterated vs non-deuterated (Compounds 37 and 73, respectively). The source says: Parallel artificial membrane permeability (PAMPA) assay is a non-cell based assay designed to predict in vivo biological membrane permeability of drugs in early stage of drug discovery. The 96-well Corning Gentest Pre-coated PAMPA Plate System (catalog no. 353015) was used to perform the assay. The Corning Gentest Pre-coated PAMPA plate system was designed by 96-well insert system with a […] PVDF (polyvinylidene fluoride) filter plate which has been pre-coated with structured tri-layers of phospholipids (lipid/oil/lipid) and a matched receiver microplate.
Donor solutions of test compounds (300 μL, 20 μM in PBS/MeOH 90:10) were added to each well of the donor plate. 200 μL of PBS/MeOH 90:10 was added to each well of the acceptor plate. The acceptor plate was coupled with the donor plate and incubated for 5 hours at room temperature (RT) without agitation. In each plate, compounds were tested in triplicate. At the end of the incubation, drug concentration in the initial donor solution, acceptor and the donor wells were determined using LC/MS/MS. A five (5) points standard curve from 0.1 to 1000 nM for each test compound were prepared. Analyte samples were diluted to within standard curve concentration with ACN/H2O 50:50 prior analysis.
All samples were analyzed by electrospray ionization (ESI) liquid chromtograph/mass spectrometry (LC/MS) system utilizing Sciex 5500 quadropule ion trap (Qtrap) mass spectrometry with Shidmazu Nexera X2 UHPLC. The LC-MS/MS instrument monitored each of the test compound in the study based of their respective mass-to-charge (m/z) transitions and MS parameters. Chromatographic separation was achieved on Phenomenex Luna C18 column (50×2.0 mm, 3 μm particle size) by using a gradient elution: mobile phase A contains 0.1% formic acid in water and mobile phase B contains 0.1% formic acid in acetonitrile; A/B (99:1) from 0 to 1 minutes; to A/B (1:99) from 1 to 4 minutes; A/B (1:99) from 4 to 8 minutes; to A/B (99:1) from 8 to 8.20 minutes; A/B (99:1) from 8.2 to 9 minutes. The flow rate was 0.4 mL/min and the column temperature was maintained at 35° C. and autosampler temperature at 4° C. For detection, the electrospray ionization operated in the positive mode using multiple reaction monitoring (MRM).
Data acquisition, and peak integrations were obtained by Analyst® Version 1.7.1 (Sciex) operating with Windows® (Microsoft). The standard curve regressions and sample concentrations were generated and calculated by Analyst®. Concentrations in the sample solutions were determined based on the measured peak area ratios from the response of the analyte to the internal standard with reference to the standard calibration curve. All sample calculations were calculated using a linear regression with 1/x2 weighting (where x is the concentration of given calibration standard level).
Permeability of the test compounds was calculated using the following formula:
Where: • A=filter area=[…] • VA=acceptor well volume (0.2 mL) • VD=donor well volume […], • t=incubation time=5 hours=18000 seconds, • CA(t)=compound concentration in acceptor well at time t (nM), • CD(t)=compound concentration in donor well at time t (nM), and […]
On the technique in general: In PAMPA a lipid-coated filter parts donor from acceptor wells.

The Papp is a coefficient for how fast a substance crosses the barrier. A higher Papp goes with ready permeation. On to `CC(=O)NCCN1Cc2nc(NCc3c(F)cc(F)cc3F)ccc2C1=O` [Compound 37, N-(2-(5-oxo-2-((2,4,6-trifluorobenzyl)amino)-5,7-dihydro-6H-pyrrolo[3,4-b]pyridin-6-yl)ethyl)acetamide], for which the Papp at 5 h, 20 µM was 0.68 ×10⁻⁶ cm/s.

`CCC(=O)NCCN1Cc2nc(NCc3c(F)cc(F)cc3F)ccc2C1=O` [Compound 73, N-(2-(5-oxo-2-((2,4,6-trifluorobenzyl)amino)-5,7-dihydro-6H-pyrrolo[3,4-b]pyridin-6-yl)ethyl)propionamide] yielded a Papp at 5 h, 20 µM of 0.79 ×10⁻⁶ cm/s.

As to `[2H]C([2H])([2H])C(=O)NCCN1Cc2nc(NCc3c(F)cc(F)cc3F)ccc2C1=O` [Compound 202, N-(2-(5-oxo-2-((2,4,6-trifluorobenzyl)amino)-5,7-dihydro-6H-pyrrolo[3,4-b]pyridin-6-yl)ethyl)acetamide-2,2,2-d3], the Papp at 5 h, 20 µM was 1.83 ×10⁻⁶ cm/s and the “permeability compared to non-deuterated counterparts” value is on record as “improved permeability”.

On to `[2H]C([2H])([2H])C([2H])([2H])C(=O)NCCN1Cc2nc(NCc3c(F)cc(F)cc3F)ccc2C1=O` [Compound 204, N-(2-(5-oxo-2-((2,4,6-trifluorobenzyl)amino)-5,7-dihydro-6H-pyrrolo[3,4-b]pyridin-6-yl)ethyl)propenamide-d5], for which the Papp at 5 h, 20 µM was determined as 1.07 ×10⁻⁶ cm/s and the “permeability compared to non-deuterated counterparts” value was “improved permeability”.
